pIC50: −log10 of the molar value.

T1 sequence (P52333 810-1124): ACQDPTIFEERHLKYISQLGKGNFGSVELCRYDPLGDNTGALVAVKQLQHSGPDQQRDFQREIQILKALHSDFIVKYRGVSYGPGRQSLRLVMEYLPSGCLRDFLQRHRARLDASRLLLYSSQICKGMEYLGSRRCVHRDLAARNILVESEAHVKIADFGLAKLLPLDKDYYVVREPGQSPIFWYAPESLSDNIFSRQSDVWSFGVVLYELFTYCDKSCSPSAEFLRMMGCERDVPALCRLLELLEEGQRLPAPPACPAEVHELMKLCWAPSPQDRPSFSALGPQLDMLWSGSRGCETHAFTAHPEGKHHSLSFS

This experiment addresses T1, JAK3 (recombinant human kinase domain; h-jak3(810-1124)) (Homo sapiens, UniProt P52333).
T1 construct: h-jak3(810- 1124)-sf9-c; made in house; host or cells: Sf9 insect cells
Description: Determination of IC50 of Janus Kinase (JAK) inhibition: JAK3, radioactive end-point assay with 33P-ATP. The following applies: JAK3 kinase domain; ATP 1.5 uM, peptide 50 uM, 20 minutes, room temperature, 10% DMSO; read-out: Ic50 h-jak3(810-1124)-sf9-c:no additive. Type of experiment: biochemical.
Description: Determination of IC50 of Janus Kinase (JAK) Inhibition:
Enzymes and peptide substrate used are described below: • JAK1: Recombinant human kinase domain from Invitrogen (Cat # PV4774) • JAK3: Recombinant human kinase domain from Millipore (Cat #14-629) or prepared. • JAK2: Recombinant human kinase domain from Millipore (Cat #14-640) • Substrate: N-terminally biotinylated 14-mer peptide derived from activation loop of JAK1 with sequence of the peptide substrate: Biotin-[sequence]
Assay Conditions Used are Described Below: • Assay Buffer: JAK Kinase Buffer: 50 mM Hepes [pH 7.2], 10 mM MgCl2, 1 mM DTT, • 1 mg/ml BSA. The assay is carried out in this buffer. • Assay Format The kinase activity of all three JAK kinases is measured using a radioactive, end-point assay and with trace amounts of ^33P-ATP. The assays are carried out in 96-well polypropylene plates.
All concentrations are final in the reaction mixture and all incubations are carried at room temperature. […] Final concentration of DMSO in the reaction is 10%. • 2) Compounds are preincubated with enzyme (0.5 nM JAK3 (commercially available), 0.2 nM JAK3 (prepared), 1 nM JAK2, 5 nM JAK1) for 10 minutes. • 3) Reactions are initiated by the addition of a cocktail of the two substrates (ATP and peptide premixed in the JAK Kinase Buffer). In the JAK2/JAK3 assays, ATP and the peptide are used at concentrations of 1.5 uM and 50 uM, respectively. JAK1 assay is carried out at an ATP concentration of 10 uM and a peptide concentration of 50 uM. • 4) The duration of the assay for JAK2 and JAK3 is 20 minutes. JAK1 assay is carried out for 40 minutes. With all three enzymes, reactions are terminated by the addition of 0.5M EDTA to a final concentration of 100 mM. • 5) 25 ul of terminated reactions are transferred to 150 ul of a 7.5% (v/v) slurry of streptavidin-coated sepharose beads in MgCl2- and CaCl2-free 1× Phosphate Buffered Saline containing 50 mM of EDTA in 96-well, 1.2 um MultiScreen-BV filter plates. • 6) After a 30-minute incubation, the beads are washed under vacuum with the following buffers: • a. 3 to 4 washes with 200 ul of 2M NaCl. • b. 3 to 4 washes with 200 ul of 2M NaCl plus 1% (v/v) phosphoric acid. • c. 1 wash with water. • 7) Washed plates are dried in a 60° C. oven for between 1 to 2 hours. • 8) 70 ul of Microscint 20 scintillation fluid is added to each well of filter plates and after at least 30 minutes of incubation, radioactive counts are measured in a Perkin-Elmer microplate scintillation counter.
For the molecule `C[C@H](NC(=O)c1c[nH]c2ncc(-c3ccc(C(=O)NCc4ccc(F)cc4)s3)nc12)C(C)(C)C` [Example I-185, 2-[5-(4-Fluoro-benzylcarbamoyl)-thiophen-2-yl]-5H-pyrrolo[2,3-b]pyrazine-7-carboxylic acid ((S)-1,2,2-trimethyl-propyl)-amide], the pIC50 is 9.49.
The same measure for `CC(Cn1cccn1)NC(=O)c1ccc(-c2cnc3[nH]cc(C(=O)N[C@@H](C)C(C)(C)C)c3n2)s1` (stereo partly drawn) [Example I-158, 2-[5-(1-Methyl-2-pyrazol-1-yl-ethylcarbamoyl)-thiophen-2-yl]-5H-pyrrolo[2,3-b]pyrazine-7-carboxylic acid ((S)-1,2,2-trimethyl-propyl)-amide]: 9.49; for `C[C@H](CO)NC(=O)c1ccc(-c2cnc3[nH]cc(C(=O)N[C@@H](C)C(C)(C)C)c3n2)s1` [Example I-169, 2-[5-((R)-2-Hydroxy-1-methyl-ethylcarbamoyl)-thiophen-2-yl]-5H-pyrrolo[2,3-b]pyrazine-7-carboxylic acid ((S)-1,2,2-trimethyl-propyl)-amide]: 9.54.
On to `CC(C)NC(=O)c1c[nH]c2ncc(Oc3ccc4c(c3)[C@H](NC=O)CC4)nc12` [Example I-301, 2-((R)-3-Formylamino-indan-5-yloxy)-5H-pyrrolo[2,3-b]pyrazine-7-carboxylic acid isopropylamide], for which the pIC50 was 6.93.
The same measure for `C[C@H](NC(=O)c1c[nH]c2ncc(C3CC3)nc12)C1(O)CCCC1` [Example I-97, 2-Cyclopropyl-5H-pyrrolo[2,3-b]pyrazine-7-carboxylic acid [(S)-1-(1-hydroxy-cyclopentyl)-ethyl]-amide]: 7.74; for `CC(NC(=O)c1c[nH]c2ncc(C3CC3)nc12)C(C)(C)CO` (stereo not drawn) [Example I-71, 2-Cyclopropyl-5H-pyrrolo[2,3-b]pyrazine-7-carboxylic acid (3-hydroxy-1,2,2-trimethyl-propyl)-amide]: 8.42.
On to `C[C@H](NC(=O)c1c[nH]c2ncc(C3CC3)nc12)C(C)(C)CS(C)(=O)=O` [Example I-144, 2-Cyclopropyl-5H-pyrrolo[2,3-b]pyrazine-7-carboxylic acid ((S)-3-methanesulfonyl-1,2,2-trimethyl-propyl)-amide], for which the pIC50 was 8.47.
With `C[C@H](NC(=O)c1c[nH]c2ncc(-c3cn(-c4cccc(Cl)c4)cn3)nc12)C(C)(C)C` [Example I-145, 2-[1-(3-Chloro-phenyl)-1H-imidazol-4-yl]-5H-pyrrolo[2,3-b]pyrazine-7-carboxylic acid ((S)-1,2,2-trimethyl-propyl)-amide] the figure was 8.34; with `CC(CN(C)C)NC(=O)c1c[nH]c2ncc(C3CC3)nc12` (stereo not drawn) [Example I-27, 2-Cyclopropyl-5H-pyrrolo[2,3-b]pyrazine-7-carboxylic acid (2-dimethylamino-1-methyl-ethyl)-amide], 6.03; with `COC[C@@H](NC(=O)c1c[nH]c2ncc(C3CC3)nc12)C(C)(C)C` [Example I-65, 2-Cyclopropyl-5H-pyrrolo[2,3-b]pyrazine-7-carboxylic acid ((S)-1-methoxymethyl-2,2-dimethyl-propyl)-amide], 6.58.
With `CC(C)[C@H](C)NC(=O)c1c[nH]c2ncc(C3CC3)nc12` [Example I-25, 2-Cyclopropyl-5H-pyrrolo[2,3-b]pyrazine-7-carboxylic acid ((S)-1,2-dimethyl-propyl)-amide] the figure was 8.17; with `CCNC(=O)c1c[nH]c2ncc(Oc3cccc4c3CCCC4)nc12` [Example I-259], 5.17.
With `Cc1cc(-c2cnc3[nH]cc(C(=O)N[C@@H](C)C(C)(C)C)c3n2)sc1C(=O)N1CC2(COC2)C1` [Example I-221, 2-[4-Methyl-5-(2-oxa-6-aza-spiro[3.3]heptane-6-carbonyl)-thiophen-2-yl]-5H-pyrrolo[2,3-b]pyrazine-7-carboxylic acid ((S)-1,2,2-trimethyl-propyl)-amide], the pIC50 is 10.10.
The same measure for `CC(C)NC(=O)c1c[nH]c2ncc(Oc3ccc4c(c3)[C@@H](N)CC4)nc12` [Example I-289, 2-((S)-3-Amino-indan-5-yloxy)-5H-pyrrolo[2,3-b]pyrazine-7-carboxylic acid isopropylamide]: 6.27; for `CC(C)[C@@H](C)NC(=O)c1c[nH]c2ncc(Oc3ccc(F)cc3F)nc12` [Example I-127, 2-(2,4-Difluoro-phenoxy)-5H-pyrrolo[2,3-b]pyrazine-7-carboxylic acid ((R)-1,2-dimethyl-propyl)-amide]: 6.85; for `CCNC(=O)c1ccc(-c2cnc3[nH]cc(C(=O)N[C@@H](C)C(C)(C)C)c3n2)s1` [Example I-155, 2-(5-Ethylcarbamoyl-thiophen-2-yl)-5H-pyrrolo[2,3-b]pyrazine-7-carboxylic acid ((S)-1,2,2-trimethyl-propyl)-amide]: 9.49.
With `C[C@H](NC(=O)c1c[nH]c2ncc(-c3ccc(C(=O)N4CCC(C#N)CC4)s3)nc12)C(C)(C)C` [Example I-167, 2-[5-(4-Cyano-piperidine-1-carbonyl)-thiophen-2-yl]-5H-pyrrolo[2,3-b]pyrazine-7-carboxylic acid ((S)-1,2,2-trimethyl-propyl)-amide] the figure was 9.49; with `C[C@@H](NC(=O)c1c[nH]c2ncc(Oc3ccc(F)cc3F)nc12)C(C)(C)C` [Example I-134, 2-(2,4-Difluoro-phenoxy)-5H-pyrrolo[2,3-b]pyrazine-7-carboxylic acid ((R)-1,2,2-trimethyl-propyl)-amide], 6.05.
For `CC(=O)N[C@@H]1CCc2ccc(Oc3cnc4[nH]cc(C(=O)N[C@@H](C)C(C)(C)C)c4n3)cc21` [Example I-287, 2-((R)-3-Acetylamino-indan-5-yloxy)-5H-pyrrolo[2,3-b]pyrazine-7-carboxylic acid ((S)-1,2,2-trimethyl-propyl)-amide], the pIC50 was 7.70.
With `C[C@@H](NC(=O)c1c[nH]c2ncc(-c3ccccn3)nc12)C(C)(C)O` [Example I-112, 2-Pyridin-2-yl-5H-pyrrolo[2,3-b]pyrazine-7-carboxylic acid ((R)-2-hydroxy-1,2-dimethyl-propyl)-amide] the figure was 7.06; with `C[C@H](NC(=O)c1c[nH]c2ncc(-c3cn(-c4cccc(C(F)(F)F)c4)cn3)nc12)C(C)(C)C` [Example I-146, 2-[1-(3-Trifluoromethyl-phenyl)-1H-imidazol-4-yl]-5H-pyrrolo[2,3-b]pyrazine-7-carboxylic acid ((S)-1,2,2-trimethyl-propyl)-amide], 7.88; with `CC(C)NC(=O)c1c[nH]c2ncc(Oc3cccc(Cl)c3)nc12` [Example I-243, 2-(3-Chloro-phenoxy)-5H-pyrrolo[2,3-b]pyrazine-7-carboxylic acid isopropylamide], 6.51.
Turning to `CC(C)(CO)NC(=O)c1c[nH]c2ncc(C3CC3)nc12` [Example I-45, 2-Cyclopropyl-5H-pyrrolo[2,3-b]pyrazine-7-carboxylic acid (2-hydroxy-1,1-dimethyl-ethyl)-amide], the pIC50 was 6.68.
In the case of `N#CC(NC(=O)c1c[nH]c2ncc(C3CC3)nc12)C1CC1` (stereo not drawn) [Example I-90, 2-Cyclopropyl-5H-pyrrolo[2,3-b]pyrazine-7-carboxylic acid (cyano-cyclopropyl-methyl)-amide], the negative-log IC50 (pIC50) is 7.84.

One may read the pIC50 as the IC50 on a negative log10 scale, so that one unit is a factor of ten.
